Data: patent US10993983B2, “Cyclic peptide epitopes and small-molecule mimics for inducing autophagy” (TRUSTEES OF TUFTS COLLEGE, priority 2016, dated 2021)
Marks after values point to notes of the source that are not given here. Where no end group is shown, it is not given here. [ ]: non-standard residue; d: D form.

What was measured:
p62 = p62 degradation assay (p62/actin immunoblot);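 on Activity (μM) 10, p62/actin assay activity: HeLa cells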;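 on Activity (μM) 100, p62/actin assay activity: HeLa cells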;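 on Activity (μM) 30, p62/actin assay activity: HeLa cells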;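 on Activity (μM) 50, p62/actin assay activity: HeLa cells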; type: cell-based; design: key: −: activity not reported; 0: decreased vs. WT; +: similar to WT; ++: modest increase vs. WT; +++: significant increase vs. WT; conditions: first symbol; for Activity (μM) 10, p62/actin assay activity: 10 μM; for Activity (μM) 30, p62/actin assay activity: 30 μM; for Activity (μM) 50, p62/actin assay activity: 50 μM; for Activity (μM) 100, p62/actin assay activity: 100 μM; for Activity (μM) 10, starred cell, p62/actin assay activity / Activity (μM) 30, starred cell, p62/actin assay activity: Table 8; for Activity (μM) 10, starred cell, p62/actin assay activity: 10 μM marked * (footnote: data taken at 20 instead of 30 μM); for Activity (μM) 30, starred cell, p62/actin assay activity: *Data taken at 20 instead of 30 μM
Protocol: (§1) Cells were treated with peptide in OPTI-MEM (Thermo Scientific) acidified with 0.15% (v/v) 6N HCl for 3 hour. Cells were rinsed with Dulbecco's phosphate buffered saline (PBS) and lysed in lysis buffer (20 mM HEPES, 150 mM NaCl, 1 mM EDTA, 1% Triton X-100, protease inhibitor cocktail (Roche) on ice for 1 hour. Cell lysates were centrifuged at 16,000 g for 10 min at 4° C. and analyzed by SDS-PAGE and transferred to PVDF membranes. The membranes were blocked 5% non-fat dry milk (NFDM) in PBST (PBS+0.05% Tween-20) for 1 hour, then incubated overnight at 4° C. with primary antibody in 5% NFDM in PBST. The blots were washed with PBST and incubated with HRP-conjugated secondary antibodies diluted in 5% NFDM in PBST for 1 hour at room temperature. Membranes were washed with PBST and visualized with SuperSignal West Pico Chemiluminescent Substrate (Thermo Scientific). Semi-quantitative results were obtained by noting the lowest concentration at which both p62 degradation and LC3-I to LC3-II conversion were observed.
(§2) Compounds 1-10 were evaluated using the assays described in Examples 4 and 5. Activity for each compound was measured in the p62 degradation assay and the LC3 marker assay as described herein. The activity at each concentration of peptide is given as, for example, (0/+) where 0 would be the p62/actin assay activity and + would be the LC3 assay activity.

LC3 = LC3 marker assay (LC3-I to LC3-II conversion immunoblot);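 on Activity (μM) 10, LC3 assay activity: HeLa cells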;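 on Activity (μM) 100, LC3 assay activity: HeLa cells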;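 on Activity (μM) 30, LC3 assay activity: HeLa cells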;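 on Activity (μM) 50, LC3 assay activity: HeLa cells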; type: cell-based; design: key: −: activity not reported; 0: decreased vs. WT; +: similar to WT; ++: modest increase vs. WT; +++: significant increase vs. WT; conditions: second symbol; for Activity (μM) 10, LC3 assay activity: 10 μM; for Activity (μM) 30, LC3 assay activity: 30 μM; for Activity (μM) 50, LC3 assay activity: 50 μM; for Activity (μM) 100, LC3 assay activity: 100 μM; for Activity (μM) 10, starred cell, LC3 assay activity / Activity (μM) 30, starred cell, LC3 assay activity: Table 8; for Activity (μM) 10, starred cell, LC3 assay activity: 10 μM marked * (footnote: data taken at 20 instead of 30 μM); for Activity (μM) 30, starred cell, LC3 assay activity: *Data taken at 20 instead of 30 μM
Protocol: as §1, §2

[1] = 5 μM, Table 8, control compound T25

| Sequence | Activity (μM) 50, p62/actin assay activity (p62; Table 8, control compound T25) | Activity (μM) 100, p62/actin assay activity (p62; Table 8, control compound T25) | Activity (μM) 50, LC3 assay activity (LC3; Table 8, control compound T25) | Activity (μM) 100, LC3 assay activity (LC3; Table 8, control compound T25) | Activity (μM) 30, p62/actin assay activity (p62; Table 8, control compound T25) | Activity (μM) 30, LC3 assay activity (LC3; Table 8, control compound T25) | Activity (μM) 10, p62/actin assay activity (p62; Table 8, control compound T25) | Activity (μM) 10, LC3 assay activity (LC3; Table 8, control compound T25) | further results |
| --- | --- | --- | --- | --- | --- | --- | --- | --- | --- |
| VCNATCHIWH [Compound 19] | – | – | – | – | – | – | – | – | Activity (μM) 10, p62/actin assay activity (p62; Table 6, control DMSO): +; Activity (μM) 30, p62/actin assay activity (p62; Table 6, control DMSO): ++; Activity (μM) 50, p62/actin assay activity (p62; Table 6, control DMSO): ++; Activity (μM) 100, p62/actin assay activity (p62; Table 6, control DMSO): +++; Activity (μM) 10, LC3 assay activity (LC3; Table 6, control DMSO): 0; Activity (μM) 30, LC3 assay activity (LC3; Table 6, control DMSO): 0; Activity (μM) 50, LC3 assay activity (LC3; Table 6, control DMSO): +; Activity (μM) 100, LC3 assay activity (LC3; Table 6, control DMSO): + |
| VCNATCHIWH [Compound 50] | ++ | ++ | +++ | +++ | – | – | – | – | – |
| VCNATCHIWH [Compound 26] | – | – | – | – | – | – | – | – | Activity (μM) 10, p62/actin assay activity (p62; Table 6, control DMSO): ++; Activity (μM) 30, p62/actin assay activity (p62; Table 6, control DMSO): +++/+++; Activity (μM) 50, p62/actin assay activity (p62; Table 6, control DMSO): +++/+++; Activity (μM) 100, p62/actin assay activity (p62; Table 6, control DMSO): +++/+++; Activity (μM) 10, LC3 assay activity (LC3; Table 6, control DMSO): +++; Activity (μM) 30, LC3 assay activity (LC3; Table 6, control DMSO): +++/+++; Activity (μM) 50, LC3 assay activity (LC3; Table 6, control DMSO): +++/+++; Activity (μM) 100, LC3 assay activity (LC3; Table 6, control DMSO): +++/+++ |
| VCNACFHIWH [Compound 73] | + | – | +++ | – | 0 | + | – | – | Activity (μM) 10, starred cell, p62/actin assay activity (p62): 0/0*; Activity (μM) 10, starred cell, LC3 assay activity (LC3): 0/0* |
| VCNACFHIWH [Compound 57] | + | – | 0 | – | + | 0 | 0/0 | 0/0 | – |
| VCNACFHIWH [Compound 69] | ++ | – | +++ | – | 0/0 | 0/0 | – | – | Activity (μM) 10, starred cell, p62/actin assay activity (p62): 0/0*; Activity (μM) 10, starred cell, LC3 assay activity (LC3): 0/0* |
| VCNATCHIWH [Compound 48] | +++/+++ | +++/+++ | +++/+++ | +++/+++ | – | – | – | – | – |
| VCNATCHIWH [Compound 35] | +++ | +++ | ++ | ++ | 0 | + | 0/0 | 0/0 | – |
| VWNATFHIWHD [63] (not fully specified (N-terminus, C-terminus)) [Compound 63] | – | – | – | – | – | – | 0 | + | Activity (μM) 30, starred cell, p62/actin assay activity (p62): 0; Activity (μM) 30, starred cell, LC3 assay activity (LC3): +++ |
| VCNATCHIWH [Compound 32] | – | – | – | – | – | – | – | – | Activity (μM) 30, p62/actin assay activity (p62; Table 7, control compound T25): ++; Activity (μM) 50, p62/actin assay activity (p62; Table 7, control compound T25): ++; Activity (μM) 100, p62/actin assay activity (p62; Table 7, control compound T25): ++; Activity (μM) 30, LC3 assay activity (LC3; Table 7, control compound T25): 0; Activity (μM) 50, LC3 assay activity (LC3; Table 7, control compound T25): 0; Activity (μM) 100, LC3 assay activity (LC3; Table 7, control compound T25): 0 |
| VCNATCHIWH [Compound 34] | +++/+++ | +++/+++ | +++/+++ | +++/+++ | + | ++ | 0/0 | 0/0 | Activity (μM) 5, p62/actin assay activity (p62; [1]): 0/0; Activity (μM) 5, LC3 assay activity (LC3; [1]): 0/0 |
| VWNATFHIWH (not fully specified (N-terminus, C-terminus)) [Compound 64] | – | – | – | – | – | – | 0/0 | 0/0 | Activity (μM) 30, starred cell, p62/actin assay activity (p62): 0/0*; Activity (μM) 30, starred cell, LC3 assay activity (LC3): 0/0* |
| VCNATCRIWR (V[dC]NAT[dC]RIWR; not fully specified (C-terminus); cysteine pairing not given here) [Compound 42] | 0/0 | 0/0 | 0/0 | 0/0 | – | – | – | – | – |
